Measured values: patent publication US20240109900A1, “AZABICYCLIC SHP2 INHIBITORS” (IRBM S.P.A., priority 2021, published 2024)
Like-named read-outs stand apart in the source and are kept apart here.

How the values were obtained:
[1] = system: ERK phosphorylation in KYSE-520 cells; assay: Phospho-ERK cellular assay; assay type: cell-based; details: Homo sapiens, KYSE-520 cells, 2 h at 37° C., phospho-ERK1/2 (Thr202/Tyr204) TR-FRET, read-out: PERK IC50
Procedure, shortened: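 TR-FRET read-out of ERK1/2 Thr202/Tyr204 phosphorylation was taken after overnight antibody incubation at room temperature. Before that, KYSE-520 cells were treated 2 h at 37 °C with compound dilutions and lysed 30 min. Percent inhibition relative to vehicle and cell-free wells was fitted four-parametrically to give IC50.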

[2] = target: SHP-2 enzyme (Met1-Leu525) (Homo sapiens (Human), UniProt Q06124); assay: SHP2 inhibition enzymatic assay; assay type: biochemical; details: read-out: SHP2wt-IC50
Procedure, shortened: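 Compounds were preincubated 30 min with 0.5 nM SHP-2 (Met1-Leu525) plus 500 nM IRS1 activating peptide (pH 7.2 HEPES, 5 mM DTT), then 75 μM DiFMUP substrate reacted 30 min at room temperature. After bpV quench, DiFMUP fluorescence gave % inhibition; four-parameter logistic fit yielded IC50.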

[3] = 0.5 nM SHP-2 activated by 500 nM IRS1 peptide, 75 μM DiFMUP substrate

SHP-2 enzyme (Met1-Leu525), sequence (Q06124 1-525): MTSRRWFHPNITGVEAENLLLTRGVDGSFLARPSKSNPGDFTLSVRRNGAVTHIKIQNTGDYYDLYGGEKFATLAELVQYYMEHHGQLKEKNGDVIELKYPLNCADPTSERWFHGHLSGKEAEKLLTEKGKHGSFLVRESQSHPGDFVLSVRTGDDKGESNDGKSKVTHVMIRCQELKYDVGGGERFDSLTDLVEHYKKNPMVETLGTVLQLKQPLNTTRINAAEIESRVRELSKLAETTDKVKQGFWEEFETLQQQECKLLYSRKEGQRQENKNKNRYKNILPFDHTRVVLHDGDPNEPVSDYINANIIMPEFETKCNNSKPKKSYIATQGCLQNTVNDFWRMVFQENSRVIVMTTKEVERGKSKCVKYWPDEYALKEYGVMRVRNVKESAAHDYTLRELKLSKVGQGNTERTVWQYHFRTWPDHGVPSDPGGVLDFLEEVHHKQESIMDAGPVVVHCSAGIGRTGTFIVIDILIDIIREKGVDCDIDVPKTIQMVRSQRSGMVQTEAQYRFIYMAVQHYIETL

| IC50 ([1]; KYSE-520, 2 h) [nM] | IC50 [2, 3] [nM] | Structure (SMILES) | IC50 [1] [nM] | IC50 [2] [nM] |
| --- | --- | --- | --- | --- |
| < 1000 | < 500 | Cc1cc([C@@]2(CN)[C@@H]3CCN(c4cnc5c(-c6ccnc7cc(F)ccc67)n[nH]c5n4)C[C@@H]32)no1 [Example 45, ((1S,6R,7S)-3-(3-(7-fluoroquinolin-4-yl)-1H-pyrazolo[3,4-b]pyrazin-6-yl)-7-(5-methylisoxazol-3-yl)-3-azabicyclo[4.1.0]heptan-7-yl)methanamine] |  |  |
| < 1000 | < 500 | Cc1cc([C@@]2(CN)[C@@H]3CCN(c4cnc5c(-c6ccc7nn(C)cc7c6Cl)n[nH]c5n4)C[C@@H]32)no1 [Example 46, ((1S,6R,7S)-3-(3-(4-chloro-2-methyl-2H-indazol-5-yl)-1H-pyrazolo[3,4-b]pyrazin-6-yl)-7-(5-methylisoxazol-3-yl)-3-azabicyclo[4.1.0]heptan-7-yl)methanamine] |  |  |
| < 1000 | < 500 | COCc1cc(C2(CN)C3CCN(c4cnc5c(-c6ccc7nn(C)cc7c6Cl)n[nH]c5n4)CC32)no1 (stereo not drawn) [Example 47, (3-(3-(4-chloro-2-methyl-2H-indazol-5-yl)-1H-pyrazolo[3,4-b]pyrazin-6-yl)-7-(5-(methoxymethyl)isoxazol-3-yl)-3-azabicyclo[4.1.0]heptan-7-yl)methanamine] |  |  |
| < 1000 | < 500 | Cn1cc2c(Cl)c(-c3n[nH]c4nc(N5CCC6C(C5)C6(CN)c5cc(C6CC6)on5)cnc34)ccc2n1 (stereo not drawn) [Example 48, (3-(3-(4-chloro-2-methyl-2H-indazol-5-yl)-1H-pyrazolo[3,4-b]pyrazin-6-yl)-7-(5-cyclopropylisoxazol-3-yl)-3-azabicyclo[4.1.0]heptan-7-yl)methanamine] |  |  |
| < 1000 | < 500 | Cn1cc2c(Cl)c(-c3n[nH]c4nc(N5CCC6C(C5)C6(CN)c5ncccc5F)cnc34)ccc2n1 (stereo not drawn) [Example 49, (3-(3-(4-chloro-2-methyl-2H-indazol-5-yl)-1H-pyrazolo[3,4-b]pyrazin-6-yl)-7-(3-fluoropyridin-2-yl)-3-azabicyclo[4.1.0]heptan-7-yl)methanamine] |  |  |
| < 1000 | < 500 | Cn1cc2c(Cl)c(-c3n[nH]c4nc(N5CCC6C(C5)C6(CN)c5ccc(F)cn5)cnc34)ccc2n1 (stereo not drawn) [Example 50, (3-(3-(4-chloro-2-methyl-2H-indazol-5-yl)-1H-pyrazolo[3,4-b]pyrazin-6-yl)-7-(5-fluoropyridin-2-yl)-3-azabicyclo[4.1.0]heptan-7-yl)methanamine] |  |  |
| < 1000 | < 500 | Cc1cc([C@@]2(CN)[C@@H]3CCN(c4cnc5c(-c6cccc7c6C(F)(F)C(=O)N7C)n[nH]c5n4)C[C@@H]32)no1 [Example 51, 4-(6-((1S,6R,7S)-7-(aminomethyl)-7-(5-methylisoxazol-3-yl)-3-azabicyclo[4.1.0]heptan-3-yl)-1H-pyrazolo[3,4-b]pyrazin-3-yl)-3,3-difluoro-1-methylindolin-2-one] |  |  |
| < 1000 | < 500 | Cc1conc1C1(CN)C2CCN(c3cnc4c(-c5ccc6onc(C)c6c5)n[nH]c4n3)CC21 (stereo not drawn) [Example 52, (3-(3-(3-methylbenzo[d]isoxazol-5-yl)-1H-pyrazolo[3,4-b]pyrazin-6-yl)-7-(4-methylisoxazol-3-yl)-3-azabicyclo[4.1.0]heptan-7-yl)methanamine] |  |  |
| < 1000 | < 500 | Cc1cc(C2(CN)C3CCN(c4cnc5c(Sc6ccnc(N)c6Cl)n[nH]c5n4)CC32)no1 (stereo not drawn) [Example 53, 4-((6-(7-(aminomethyl)-7-(5-methylisoxazol-3-yl)-3-azabicyclo[4.1.0]heptan-3-yl)-1H-pyrazolo[3,4-b]pyrazin-3-yl)thio)-3-chloropyridin-2-amine] |  |  |
| < 1000 | < 500 | Cc1cc(C2(CN)C3CCN(c4cnc5c(Sc6ccnc7ccsc67)n[nH]c5n4)CC32)no1 (stereo not drawn) [Example 54, (7-(5-methylisoxazol-3-yl)-3-(3-(thieno[3,2-b]pyridin-7-ylthio)-1H-pyrazolo[3,4-b]pyrazin-6-yl)-3-azabicyclo[4.1.0]heptan-7-yl)methanamine] |  |  |
| < 1000 | < 500 | NCC1(c2cccc(F)c2)C2CCN(c3nc4[nH]nc(-c5cccc(Cl)c5Cl)c4nc3CO)CC21 (stereo not drawn) [Example 55, (6-(7-(aminomethyl)-7-(3-fluorophenyl)-3-azabicyclo[4.1.0]heptan-3-yl)-3-(2,3-dichlorophenyl)-1H-pyrazolo[3,4-b]pyrazin-5-yl)methanol] |  |  |
| < 1000 | < 500 | NCC1(c2cccc(F)c2)C2CCN(c3nc4[nH]nc(-c5ccccc5)c4nc3CO)CC21 (stereo not drawn) [Example 56, (6-(7-(aminomethyl)-7-(3-fluorophenyl)-3-azabicyclo[4.1.0]heptan-3-yl)-3-phenyl-1H-pyrazolo[3,4-b]pyrazin-5-yl)methanol] |  |  |
| 1000 to 5000 | < 500 | Cc1cc(C2(CN)C3CCN(c4nc5[nH]nc(Sc6ccnc(N)c6Cl)c5nc4CO)CC32)no1 (stereo not drawn) [Example 57, (3-((2-amino-3-chloropyridin-4-yl)thio)-6-(7-(aminomethyl)-7-(5-methylisoxazol-3-yl)-3-azabicyclo[4.1.0]heptan-3-yl)-1H-pyrazolo[3,4-b]pyrazin-5-yl)methanol] |  |  |
| > 5000 | < 500 | Cc1cc(C2(CN)C3CCN(c4nc5[nH]nc(-c6ccnc(N)c6Cl)c5nc4CO)CC32)no1 (stereo not drawn) [Example 58, (3-(2-amino-3-chloropyridin-4-yl)-6-(7-(aminomethyl)-7-(5-methylisoxazol-3-yl)-3-azabicyclo[4.1.0]heptan-3-yl)-1H-pyrazolo[3,4-b]pyrazin-5-yl)methanol] |  |  |
| < 1000 | < 500 | Cc1cc(C2(CN)C3CCN(c4cnc5c(N6CCCc7ncccc76)n[nH]c5n4)CC32)no1 (stereo not drawn) [Example 60, (3-(3-(3,4-dihydro-1,5-naphthyridin-1(2H)-yl)-1H-pyrazolo[3,4-b]pyrazin-6-yl)-7-(5-methylisoxazol-3-yl)-3-azabicyclo[4.1.0]heptan-7-yl)methanamine] |  |  |
| < 1000 | < 500 | Cn1cc2c(Cl)c(-c3n[nH]c4nc(N5CCC6C(C5)C6(CN)c5cc(CO)on5)cnc34)ccc2n1 (stereo not drawn) [Example 61, (3-(7-(aminomethyl)-3-(3-(4-chloro-2-methyl-2H-indazol-5-yl)-1H-pyrazolo[3,4-b]pyrazin-6-yl)-3-azabicyclo[4.1.0]heptan-7-yl)isoxazol-5-yl)methanol] |  |  |
| 1000 to 5000 | < 500 | Cc1cc(C2(CN)C3CCN(c4nc5[nH]nc(-c6ccc7nn(C)cc7c6Cl)c5c(=O)n4C)CC32)no1 (stereo not drawn) [Example 62, 6-(7-(aminomethyl)-7-(5-methylisoxazol-3-yl)-3-azabicyclo[4.1.0]heptan-3-yl)-3-(4-chloro-2-methyl-2H-indazol-5-yl)-5-methyl-1,5-dihydro-4H-pyrazolo[3,4-d]pyrimidin-4-one] |  |  |
|  |  | NCC1(c2ccccc2)C2CCN(c3nc4nc(Sc5cccnc5C(F)(F)F)cnc4[nH]3)CC21 (stereo not drawn) [Example 63, (7-phenyl-3-(5-((2-(trifluoromethyl)pyridin-3-yl)thio)-1H-imidazo[4,5-b]pyrazin-2-yl)-3-azabicyclo[4.1.0]heptan-7-yl)methanamine] | 1000 to 5000 | < 500 |
| 1000 to 5000 | < 500 | NCC1(c2ccsc2)C2CCN(c3nc4nc(Sc5cccnc5C(F)(F)F)cnc4[nH]3)CC21 (stereo not drawn) [Example 64, (7-(thiophen-3-yl)-3-(5-((2-(trifluoromethyl)pyridin-3-yl)thio)-1H-imidazo[4,5-b]pyrazin-2-yl)-3-azabicyclo[4.1.0]heptan-7-yl)methanamine] |  |  |
| 1000 to 5000 | < 500 | NCC1(c2ccccn2)C2CCN(c3nc4nc(Sc5cccnc5C(F)(F)F)cnc4[nH]3)CC21 (stereo not drawn) [Example 65, (7-(pyridin-2-yl)-3-(5-((2-(trifluoromethyl)pyridin-3-yl)thio)-1H-imidazo[4,5-b]pyrazin-2-yl)-3-azabicyclo[4.1.0]heptan-7-yl)methanamine] |  |  |
| < 1000 | < 500 | NCC1(c2ncccn2)C2CCN(c3nc4nc(Sc5cccnc5C(F)(F)F)cnc4[nH]3)CC21 (stereo not drawn) [Example 66, (7-(pyrimidin-2-yl)-3-(5-((2-(trifluoromethyl)pyridin-3-yl)thio)-1H-imidazo[4,5-b]pyrazin-2-yl)-3-azabicyclo[4.1.0]heptan-7-yl)methanamine] |  |  |
| < 1000 | < 500 | Cc1csc(C2(CN)C3CCN(c4nc5nc(Sc6cccnc6C(F)(F)F)cnc5[nH]4)CC32)n1 (stereo not drawn) [Example 67, (7-(4-methylthiazol-2-yl)-3-(5-((2-(trifluoromethyl)pyridin-3-yl)thio)-1H-imidazo[4,5-b]pyrazin-2-yl)-3-azabicyclo[4.1.0]heptan-7-yl)methanamine] |  |  |
|  |  | NCC1C2CCN(c3nc4nc(Sc5cccnc5C(F)(F)F)cnc4[nH]3)CC12 (stereo not drawn) [Example 68, (3-(5-((2-(trifluoromethyl)pyridin-3-yl)thio)-1H-imidazo[4,5-b]pyrazin-2-yl)-3-azabicyclo[4.1.0]heptan-7-yl)methanamine] | > 5000 | < 500 |
|  |  | NCC1(c2ccccc2)C2CCN(c3nc4nc(Sc5ccnc(N)c5Cl)cnc4[nH]3)CC21 (stereo not drawn) [Example 69, 4-((2-(7-(aminomethyl)-7-phenyl-3-azabicyclo[4.1.0]heptan-3-yl)-1H-imidazo[4,5-b]pyrazin-5-yl)thio)-3-chloropyridin-2-amine] | 1000 to 5000 | < 500 |
